This test relates to human iCell neurons. The experiment in a line: Amyloid beta 42 ELISA on supernatant, neuronal model. The note with it: treated 2 days, 3 concentrations, FIG. 2.

Protocol: For a neuronal model, human iCell neurons (Cellular Dynamics International) were plated in 96-well plates and were grown to neuronal maturity by culturing for 2 weeks.
In each model, cells were then treated with DHA (UFA), arginine and citrulline (NORC's) at 3 different concentrations (see table 1 in FIG. 1) for 2 days. The supernatant was used to perform Amyloid beta 42 (A131-42) ELISA Kit, Human (KHB3441, Thermo Fisher Scientific).

Turning to `CC/C=C\C/C=C\C/C=C\C/C=C\C/C=C\C/C=C\CCC(=O)O` [DHA, docosahexaenoic acid], the “release of Aβ1-42” value was “no effect”.

As to `NC(=O)NCCC[C@H](N)C(=O)O` [citrulline], the “release of Aβ1-42” value is reported as “no effect”.

Source of the values: US11951137B2, “Compositions comprising unsaturated fatty acids and nitric oxide releasing compounds and use thereof for enhancing cognitive and related functions” (SOCIETE DES PRODUITS NESTLE S.A., priority 2008, dated 2024).
